Laboratory results from ChEMBL document CHEMBL1121625, “Crystal structures of calcium channel antagonists: 2,6-dimethyl-3,5-dicarbomethoxy-4-[2-nitro-, 3-cyano-, 4-(dimethylamino)-, and 2,3,4,5,6-pentafluorophenyl]-1,4-dihydropyridine” (1980).

species: Cavia porcellus; test: The compound was tested for inhibition of muscarinic responses in guinea pig ileal longitudinal smooth muscle; format: functional, Muscle tissue

Going from `COC(=O)C1=C(C)NC(C)=C(C(=O)OC)C1c1ccc(N(C)C)cc1` to `COC(=O)C1=C(C)NC(C)=C(C(=O)OC)C1c1ccccc1[N+](=O)[O-]` [NIFEDIPINE], the ID50 falls from 50000 nM to 5.1 nM (9800-fold).

First: COC(=O)C1=C(C)N=C(C)/C(=C(\O)OC)C1c1c(F)c(F)c(F)c(F)c1F (centres undefined)
Second: COC(=O)C1=C(C)N=C(C)/C(=C(\O)OC)C1c1cccc(C#N)c1 (centres undefined)
The ID50 of the first is 330-fold lower: 0.9 nM for the first, 300 nM for the second.
